Assays:
monkey NNMT (mkNNMT) = target: T1, monkey NNMT (mkNNMT) (Macaca mulatta, UniProt F7ERX8); assay: Fluorescence based NNMT enzymatic assay (monkey); conditions: fluorescence based biochemical assay
T1 construct: made in house
Experimental: NNMT activity was measured with the fluorescence enzymatic assay[22],[23]. MNA formed in the NNMT reaction reacts with acetophenone in the presence of KOH and formic acid and forms a fluorescent product 2, 7- naphthyridine. JBSNF-000088 was screened using human, mouse and monkey NNMT enzymes. Different concentrations of inhibitors were preincubated along with the enzyme for 30 minutes at room temperature. Reaction was initiated by addition of SAM and nicotinamide mixture (7 µM, 20 µM, 8 µM SAM and 6 µM, 20 µM, 9 µM nicotinamide for human, mouse and monkey NNMT assays respectively) for 60 minutes at 37 °C. The final assay reaction mixture contained a buffer of 100 mM Tris Hcl pH 7.5, 0.04% BSA, 2 mM dithiothreitol and 1% DMSO. At the end of the incubation, the reaction was stopped by the addition of ethanol: acetophenone mix (75% ethanol: 25% acetophenone) and 5 M potassium hydroxide prepared with 50% ethanol. The reaction was incubated for 15 minutes following which 100 µL of 60% formic acid was added. […] The fluorescent product 2, 7- naphthyridine was measured using a Tecan reader with excitation at 375 nm and emission at 430 nm. The IC50 values were determined by fitting the inhibition curves (percent inhibition versus inhibitor concentration) using a four parametric sigmoidal dose response using GraphPad Prism software.

[1] = system: wild-type and NNMT knockout mice on HFD
Excerpt: NNMT fl/fl mice on a C57BL/6 background were generated by Regeneron Pharmaceuticals (Tarrytown, NY) using VelociGene® technology. A loxP locus was placed 1.6 kb upstream of the transcription starting site encompassing the gene promoter. A loxP-Frt-Hyg-Frt cassette was inserted 212 bp downstream of NNMT exon 1. The floxed coordinates were chr9:48,412,881–48,414,698. NNMT fl/fl mice were crossed with ZP3-cre mice (C57BL/6, Jackson Laboratories) to generate whole-body NNMT knockout mice. The DIO mouse study was conducted in accordance to the German Animal Protection Law, as well as according to international animal welfare legislation and rules. Female wild-type and NNMT knockout animals were put on high-fat diet (Ssniff HFD adjusted TD.97366) for 18 weeks and then treated with either JBSNF-000088 (50 mg/kg bid by oral gavage) or vehicle for four weeks (n = 9–10 per group). Throughout the study, Mice were housed in an environmentally controlled room at 23 °C on a 12 h:12 h light dark cycle (light on at 06:00 AM), and food and water was offered ad libitum. An oral glucose tolerance test was performed on day 25 of treatment: Animals were fasted overnight. 60 minutes before an oral glucose bolus (2 g kg^−1), JBSNF-000088 (50 mg kg^−1) or vehicle (0.5% HEC + 0.5% Tween80) was administered by oral gavage. For blood glucose analysis, blood was collected from the tail of conscious mice at time points 15, 30, 60 and 120 minutes after the glucose bolus.

[2] = target: cGMP-inhibited 3,5-cyclic phosphodiesterase A (PDEA3) (Homo sapiens, UniProt Q14432); assay: Selectivity panel: PDEA3; assay type: biochemical; conditions: read-out: I% (antagonistic or inhibitory), PDEA3
[3] = target: Adenosine Receptor 2A (ADORA2A) (Homo sapiens, UniProt P29274); assay: Selectivity panel: ADORA2A; assay type: cell-based
[4] = target: Adrenoreceptor beta 1 (ADRB1) (Homo sapiens, UniProt P08588); assay: Selectivity panel: ADRB1; assay type: cell-based
[5] = system: Ca2+ Channel (L-Type DHP Site); assay: Selectivity panel: Ca2+ channel; assay type: binding; conditions: 10 µM
Dopamine Receptor 1 (D1) = Dopamine Receptor 1 (D1) (Homo sapiens, UniProt P21728); assay: Selectivity panel: D1; assay type: cell-based
Experimental: (§1) Supplement 41598_2018_22081_MOESM1_ESM.docx, table 2: Supplementary table 2: Selectivity profile of JBSNF-000088 (at 10 µM) vs a panel of 34 receptors, channels and enzymes. | column: E% (agonistic); I% (antagonistic or inhibitory)

[6] = target: Dopamine Receptor 2 Short (D2S) (Homo sapiens, UniProt P14416); assay: Selectivity panel: D2S; assay type: cell-based
Experimental: as §1

Niacin receptor (NAR1) = Niacin receptor (NAR1) (Homo sapiens, UniProt Q8TDS4); assay: Selectivity panel: NAR1; assay type: cell-based; conditions: 10 µM
[7] = target: Nicotinic AChR alpha4 beta2 (nAChRa4b2) (Homo sapiens, UniProt P17787+P43681); assay: Selectivity panel: nAChRa4b2; assay type: binding; conditions: read-out: I% (antagonistic or inhibitory), nAChRa4b2
Experimental: Supplement 41598_2018_22081_MOESM1_ESM.docx, table 2: Supplementary table 2: Selectivity profile of JBSNF-000088 (at 10 µM) vs a panel of 34 receptors, channels and enzymes. | column: I% (antagonistic or inhibitory)

[8] = target: Serotonin Receptor 2A (5HT2A) (Homo sapiens, UniProt P28223); assay: Selectivity panel: 5HT2A; assay type: cell-based
Experimental: as §1

cytochrome P450 enzymes = conditions: 20 µM
physchem = conditions: aqueous buffer
in vitro = conditions: human, hepatocytes

Adenosine Receptor 2A (ADORA2A), sequence (P29274 whole entry): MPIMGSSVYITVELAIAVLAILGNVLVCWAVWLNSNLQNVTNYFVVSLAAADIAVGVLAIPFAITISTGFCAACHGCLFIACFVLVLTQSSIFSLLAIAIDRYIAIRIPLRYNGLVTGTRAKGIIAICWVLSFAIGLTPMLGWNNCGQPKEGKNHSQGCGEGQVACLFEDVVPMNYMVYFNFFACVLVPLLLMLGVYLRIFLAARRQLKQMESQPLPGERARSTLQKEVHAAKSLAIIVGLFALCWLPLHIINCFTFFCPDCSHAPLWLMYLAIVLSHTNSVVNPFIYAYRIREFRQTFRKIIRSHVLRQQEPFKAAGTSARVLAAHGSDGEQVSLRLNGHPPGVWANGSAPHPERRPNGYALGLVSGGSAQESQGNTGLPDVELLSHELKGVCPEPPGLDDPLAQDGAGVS
Dopamine Receptor 2 Short (D2S), sequence (P14416 1-414 isoform P14416-2): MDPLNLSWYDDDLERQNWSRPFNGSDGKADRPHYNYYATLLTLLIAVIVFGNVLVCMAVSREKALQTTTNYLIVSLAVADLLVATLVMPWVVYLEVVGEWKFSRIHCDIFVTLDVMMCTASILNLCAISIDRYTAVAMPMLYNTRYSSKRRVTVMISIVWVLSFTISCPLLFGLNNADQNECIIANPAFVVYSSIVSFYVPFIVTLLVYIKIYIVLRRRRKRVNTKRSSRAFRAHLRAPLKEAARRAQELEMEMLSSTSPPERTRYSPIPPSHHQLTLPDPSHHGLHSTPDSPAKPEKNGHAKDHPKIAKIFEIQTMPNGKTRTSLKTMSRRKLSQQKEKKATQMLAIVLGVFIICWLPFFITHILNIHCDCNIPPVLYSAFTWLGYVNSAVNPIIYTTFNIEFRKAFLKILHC
Adrenoreceptor beta 1 (ADRB1), sequence (P08588 whole entry): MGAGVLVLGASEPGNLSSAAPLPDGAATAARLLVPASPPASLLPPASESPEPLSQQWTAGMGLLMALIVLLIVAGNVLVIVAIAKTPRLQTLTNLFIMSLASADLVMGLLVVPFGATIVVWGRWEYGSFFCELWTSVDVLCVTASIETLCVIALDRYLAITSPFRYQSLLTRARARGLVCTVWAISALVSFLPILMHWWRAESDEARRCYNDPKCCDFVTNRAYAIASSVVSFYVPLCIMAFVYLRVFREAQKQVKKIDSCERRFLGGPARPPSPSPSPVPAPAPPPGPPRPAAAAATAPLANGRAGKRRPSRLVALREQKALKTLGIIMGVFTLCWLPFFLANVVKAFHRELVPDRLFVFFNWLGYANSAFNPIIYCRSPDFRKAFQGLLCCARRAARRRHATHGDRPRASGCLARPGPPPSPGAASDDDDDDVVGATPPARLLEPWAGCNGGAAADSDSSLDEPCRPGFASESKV
Serotonin Receptor 2A (5HT2A), sequence (P28223 whole entry): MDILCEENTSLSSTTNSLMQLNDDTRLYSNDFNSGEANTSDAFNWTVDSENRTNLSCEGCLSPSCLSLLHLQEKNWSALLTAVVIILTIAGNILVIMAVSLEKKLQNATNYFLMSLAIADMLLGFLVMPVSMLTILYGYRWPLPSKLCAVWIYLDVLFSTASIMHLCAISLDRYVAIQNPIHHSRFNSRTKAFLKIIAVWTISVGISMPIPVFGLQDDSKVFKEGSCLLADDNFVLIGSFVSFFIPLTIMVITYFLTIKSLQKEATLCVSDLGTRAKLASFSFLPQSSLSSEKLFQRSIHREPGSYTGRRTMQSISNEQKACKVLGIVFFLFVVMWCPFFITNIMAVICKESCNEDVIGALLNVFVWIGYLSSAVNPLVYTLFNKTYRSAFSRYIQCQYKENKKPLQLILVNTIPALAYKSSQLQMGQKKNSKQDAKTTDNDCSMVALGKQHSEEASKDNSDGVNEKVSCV
Dopamine Receptor 1 (D1), sequence (P21728 whole entry): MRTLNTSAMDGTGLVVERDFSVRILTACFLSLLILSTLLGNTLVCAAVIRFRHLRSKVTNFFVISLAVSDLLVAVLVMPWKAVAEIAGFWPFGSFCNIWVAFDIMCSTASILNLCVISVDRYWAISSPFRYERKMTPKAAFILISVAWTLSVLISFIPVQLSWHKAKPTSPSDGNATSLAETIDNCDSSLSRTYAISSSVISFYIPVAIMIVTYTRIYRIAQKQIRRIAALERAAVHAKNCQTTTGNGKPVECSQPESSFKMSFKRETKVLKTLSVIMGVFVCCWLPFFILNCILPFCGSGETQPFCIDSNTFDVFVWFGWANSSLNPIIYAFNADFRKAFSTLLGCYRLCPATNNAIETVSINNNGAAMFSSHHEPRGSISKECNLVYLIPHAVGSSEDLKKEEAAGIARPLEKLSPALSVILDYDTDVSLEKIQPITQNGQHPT
T1 sequence (F7ERX8 1-264): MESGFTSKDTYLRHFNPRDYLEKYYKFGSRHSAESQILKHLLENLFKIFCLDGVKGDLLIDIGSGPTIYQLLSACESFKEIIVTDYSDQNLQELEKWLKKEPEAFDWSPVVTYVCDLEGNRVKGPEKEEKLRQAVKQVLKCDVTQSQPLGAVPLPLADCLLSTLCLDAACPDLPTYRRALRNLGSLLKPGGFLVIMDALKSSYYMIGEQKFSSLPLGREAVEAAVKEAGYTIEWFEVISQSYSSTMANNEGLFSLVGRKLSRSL
cGMP-inhibited 3,5-cyclic phosphodiesterase A (PDEA3), sequence (Q14432 whole entry): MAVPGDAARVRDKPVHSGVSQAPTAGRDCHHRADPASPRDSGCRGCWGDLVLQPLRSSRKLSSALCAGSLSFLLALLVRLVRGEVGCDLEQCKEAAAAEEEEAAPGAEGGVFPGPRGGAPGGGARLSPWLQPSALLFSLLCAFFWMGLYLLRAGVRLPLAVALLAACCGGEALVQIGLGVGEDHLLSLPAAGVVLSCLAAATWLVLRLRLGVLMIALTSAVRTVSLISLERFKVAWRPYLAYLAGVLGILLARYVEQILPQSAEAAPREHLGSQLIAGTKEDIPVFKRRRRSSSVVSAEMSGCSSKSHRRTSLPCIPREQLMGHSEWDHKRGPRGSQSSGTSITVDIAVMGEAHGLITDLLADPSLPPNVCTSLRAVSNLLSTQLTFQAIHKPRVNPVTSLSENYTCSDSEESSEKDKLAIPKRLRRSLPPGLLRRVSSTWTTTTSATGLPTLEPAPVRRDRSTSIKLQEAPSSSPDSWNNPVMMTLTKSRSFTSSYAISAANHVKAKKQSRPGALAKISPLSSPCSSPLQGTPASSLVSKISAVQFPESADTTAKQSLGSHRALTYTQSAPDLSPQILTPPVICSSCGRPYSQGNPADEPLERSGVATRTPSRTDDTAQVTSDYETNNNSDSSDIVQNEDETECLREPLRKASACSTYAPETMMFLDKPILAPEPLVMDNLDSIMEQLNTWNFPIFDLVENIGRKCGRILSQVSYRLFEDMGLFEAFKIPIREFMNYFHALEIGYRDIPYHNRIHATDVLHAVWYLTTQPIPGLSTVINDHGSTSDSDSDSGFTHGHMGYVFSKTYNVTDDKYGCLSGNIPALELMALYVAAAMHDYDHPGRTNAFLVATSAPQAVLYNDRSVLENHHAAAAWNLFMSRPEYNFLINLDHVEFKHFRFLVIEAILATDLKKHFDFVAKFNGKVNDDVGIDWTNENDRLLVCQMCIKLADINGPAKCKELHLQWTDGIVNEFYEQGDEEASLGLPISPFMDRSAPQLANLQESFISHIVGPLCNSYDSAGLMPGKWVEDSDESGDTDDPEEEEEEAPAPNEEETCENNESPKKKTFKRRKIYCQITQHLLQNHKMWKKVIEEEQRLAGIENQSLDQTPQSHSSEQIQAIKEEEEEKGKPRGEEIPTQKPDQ
Nicotinic AChR alpha4 beta2 (nAChRa4b2), sequence (P43681 29-627 limits assumed): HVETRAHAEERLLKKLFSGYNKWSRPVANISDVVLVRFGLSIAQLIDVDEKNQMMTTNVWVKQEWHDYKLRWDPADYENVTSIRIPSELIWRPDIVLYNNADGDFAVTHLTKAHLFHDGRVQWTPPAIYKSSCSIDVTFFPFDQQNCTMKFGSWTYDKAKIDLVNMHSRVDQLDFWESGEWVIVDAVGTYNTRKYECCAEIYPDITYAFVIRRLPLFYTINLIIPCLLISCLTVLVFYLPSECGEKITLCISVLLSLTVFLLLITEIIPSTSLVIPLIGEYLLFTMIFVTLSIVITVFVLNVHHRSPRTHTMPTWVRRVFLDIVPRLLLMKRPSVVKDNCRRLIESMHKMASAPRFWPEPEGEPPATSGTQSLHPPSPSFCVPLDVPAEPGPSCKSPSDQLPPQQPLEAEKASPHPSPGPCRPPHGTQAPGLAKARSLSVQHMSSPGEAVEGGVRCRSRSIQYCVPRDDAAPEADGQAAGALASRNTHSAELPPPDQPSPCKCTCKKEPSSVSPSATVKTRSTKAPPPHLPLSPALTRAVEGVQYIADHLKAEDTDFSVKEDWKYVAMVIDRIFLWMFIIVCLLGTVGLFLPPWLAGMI
Nicotinic AChR alpha4 beta2 (nAChRa4b2), sequence (P17787 26-502): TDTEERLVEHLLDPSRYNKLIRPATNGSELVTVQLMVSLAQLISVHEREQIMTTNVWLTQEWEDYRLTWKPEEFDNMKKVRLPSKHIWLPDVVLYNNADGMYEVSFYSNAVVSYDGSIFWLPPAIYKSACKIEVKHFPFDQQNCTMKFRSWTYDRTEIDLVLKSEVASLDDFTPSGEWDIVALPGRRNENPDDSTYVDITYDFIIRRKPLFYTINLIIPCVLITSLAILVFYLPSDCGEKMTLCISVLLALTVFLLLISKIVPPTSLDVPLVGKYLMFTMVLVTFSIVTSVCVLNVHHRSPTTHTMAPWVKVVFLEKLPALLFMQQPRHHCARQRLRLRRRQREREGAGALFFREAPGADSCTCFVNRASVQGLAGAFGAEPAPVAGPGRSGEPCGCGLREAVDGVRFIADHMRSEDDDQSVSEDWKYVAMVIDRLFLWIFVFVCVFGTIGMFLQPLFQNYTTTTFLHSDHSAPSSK

## COc1ccc(C(N)=O)cn1 [JBSNF-000088, 6-methoxynicotinamide]
Monkey NNMT (mkNNMT)
  IC50: 2800 nM
[1]; NNMT knockout mice, vs vehicle-treated knockout
  insulin level or glucose-handling in NNMT knockout mice: no differences in insulin level or glucose-handling
[1]; after 28 days, vehicle vs JBSNF-000088, wild-type or knockout
  Fed glucose levels: not different
[1]; treated wild-type mice vs vehicle treated
  glucose tolerance: improvement in glucose tolerance
[1]; wild-type animals, one hour after last administration, 28-day treatment
  plasma MNA: significant reduction in plasma MNA
[1]; wild-type mice, four weeks, not statistically significant
  fed insulin levels: trend to reduced insulin levels
[1]; wild-type or knockout animals, four weeks
  food intake: no change in food intake
[2]
  inhibition at 10 µM: -1%
[3]; 10 µM
  E% (agonistic), ADORA2A: 4%
[3]; read-out: I% (antagonistic or inhibitory), ADORA2A
  inhibition at 10 µM: 2%
[4]; 10 µM
  E% (agonistic), ADRB1: 3%
[4]; read-out: I% (antagonistic or inhibitory), ADRB1
  inhibition at 10 µM: -33%
[5]
  I% (antagonistic or inhibitory), Ca2+ Channel (L-Type DHP Site): 0%
Dopamine Receptor 1 (D1); 10 µM
  E% (agonistic), D1: 0%
Dopamine Receptor 1 (D1); read-out: I% (antagonistic or inhibitory), D1
  inhibition at 10 µM: -3%
[6]; 10 µM
  E% (agonistic), D2S: -3%
[6]; read-out: I% (antagonistic or inhibitory), D2S
  inhibition at 10 µM: 12%
Niacin receptor (NAR1)
  E% (agonistic), NAR1: -3%
[7]
  inhibition at 10 µM: 5%
[8]; 10 µM
  E% (agonistic), 5HT2A: 3%
[8]; read-out: I% (antagonistic or inhibitory), 5HT2A
  inhibition at 10 µM: -9%
Cytochrome P450 enzymes
  Cyp Inhibition: >20 µM
physchem
  solubility: > 200 µM
In vitro
  remaining at 0.5 h: > 70%

Source: paper PMC5826917, “A small molecule inhibitor of Nicotinamide N-methyltransferase for the treatment of metabolic disorders” (Scientific Reports, 2018)
